Holding throughout (assay): KINOMEscan competition binding
One experiment addresses T1, CDKL2 (Homo sapiens, UniProt Q92772).
T1 sequence (Q92772 1-493): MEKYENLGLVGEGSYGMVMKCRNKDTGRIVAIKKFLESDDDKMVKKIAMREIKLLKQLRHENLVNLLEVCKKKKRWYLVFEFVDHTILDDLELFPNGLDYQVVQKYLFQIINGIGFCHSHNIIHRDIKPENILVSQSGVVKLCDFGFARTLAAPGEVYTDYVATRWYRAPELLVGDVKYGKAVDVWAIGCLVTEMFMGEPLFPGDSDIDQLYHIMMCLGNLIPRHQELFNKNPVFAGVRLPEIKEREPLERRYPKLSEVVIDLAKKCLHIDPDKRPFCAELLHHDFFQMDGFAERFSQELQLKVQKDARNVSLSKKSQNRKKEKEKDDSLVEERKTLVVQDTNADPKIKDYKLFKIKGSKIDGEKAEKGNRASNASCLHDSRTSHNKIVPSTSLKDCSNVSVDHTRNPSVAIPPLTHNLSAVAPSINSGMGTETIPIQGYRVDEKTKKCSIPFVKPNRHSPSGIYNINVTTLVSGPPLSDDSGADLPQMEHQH
The note with it: read-out: %Inh CDKL2.

The target of a further experiment is T2, IRAK4 (Homo sapiens, UniProt Q9NWZ3).
T2 sequence (Q9NWZ3 1-460): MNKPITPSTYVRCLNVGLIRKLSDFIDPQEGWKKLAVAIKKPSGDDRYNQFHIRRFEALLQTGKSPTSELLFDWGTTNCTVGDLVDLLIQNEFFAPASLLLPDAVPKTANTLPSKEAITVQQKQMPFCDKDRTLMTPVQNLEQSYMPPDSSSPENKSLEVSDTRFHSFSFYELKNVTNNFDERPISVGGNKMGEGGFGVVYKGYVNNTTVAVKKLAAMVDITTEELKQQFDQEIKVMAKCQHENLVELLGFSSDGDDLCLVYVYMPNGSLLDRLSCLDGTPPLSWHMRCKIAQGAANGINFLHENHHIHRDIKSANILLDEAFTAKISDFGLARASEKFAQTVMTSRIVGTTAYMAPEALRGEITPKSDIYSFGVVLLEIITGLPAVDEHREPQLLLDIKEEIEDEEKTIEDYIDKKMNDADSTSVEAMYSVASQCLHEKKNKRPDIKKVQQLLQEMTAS
Conditions: read-out: %Inh IRAK4.

A further experiment concerns the target BUB1 (Homo sapiens, UniProt O43683). Conditions: read-out: %Inh BUB1.
Another experiment has as its target CAMKK1 (Homo sapiens, UniProt Q8N5S9). The note with it: read-out: %Inh CAMKK1.
The target in another experiment is BTK (Homo sapiens, UniProt Q06187). The note with it: read-out: %Inh BTK.
A further experiment addresses CAMKK2 (Homo sapiens, UniProt Q96RR4). Conditions: read-out: %Inh CAMKK2.
A further experiment deals with LRRK2 (Homo sapiens, UniProt Q5S007). The note with it: read-out: %Inh LRRK2.
A further experiment addresses FGFR1 (Homo sapiens, UniProt P11362). The note with it: read-out: %Inh FGFR1.
The target of a further experiment is CDKL3 (Homo sapiens, UniProt Q8IVW4). Conditions: read-out: %Inh CDKL3.
The next experiment addresses T3, IKK-alpha (Homo sapiens, UniProt O15111).
T3 sequence (O15111 1-745): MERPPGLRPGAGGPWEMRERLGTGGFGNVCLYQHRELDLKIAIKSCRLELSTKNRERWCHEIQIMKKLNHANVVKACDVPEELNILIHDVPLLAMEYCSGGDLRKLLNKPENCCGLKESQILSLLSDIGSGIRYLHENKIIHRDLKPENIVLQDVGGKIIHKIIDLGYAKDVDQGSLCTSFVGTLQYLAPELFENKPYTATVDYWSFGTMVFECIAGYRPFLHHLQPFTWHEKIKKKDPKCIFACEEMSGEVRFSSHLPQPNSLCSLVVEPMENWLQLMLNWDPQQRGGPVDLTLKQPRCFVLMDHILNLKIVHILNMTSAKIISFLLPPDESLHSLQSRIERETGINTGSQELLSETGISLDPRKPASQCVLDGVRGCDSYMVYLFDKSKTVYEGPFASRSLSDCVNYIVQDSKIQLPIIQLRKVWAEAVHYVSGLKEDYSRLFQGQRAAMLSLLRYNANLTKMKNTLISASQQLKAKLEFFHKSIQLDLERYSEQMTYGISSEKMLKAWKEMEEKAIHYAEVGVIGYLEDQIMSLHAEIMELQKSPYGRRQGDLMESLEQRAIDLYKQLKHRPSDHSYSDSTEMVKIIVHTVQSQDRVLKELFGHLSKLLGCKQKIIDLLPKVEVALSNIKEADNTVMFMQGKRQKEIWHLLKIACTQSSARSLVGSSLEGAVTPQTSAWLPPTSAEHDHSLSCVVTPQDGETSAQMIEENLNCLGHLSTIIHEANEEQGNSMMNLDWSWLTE
The note with it: read-out: %Inh IKK-alpha.

A further experiment deals with CAMK2A (Homo sapiens, UniProt Q9UQM7). Conditions: read-out: %Inh CAMK2A.
The target of another experiment is CDC2L1 (Homo sapiens, UniProt P21127). The note with it: read-out: %Inh CDC2L1.
For experiment [1], the target named is JAK1(JH2domain-pseudokinase) (Homo sapiens, UniProt P23458). The note with it: read-out: %Inh JAK1(JH2domain-pseudokinase).
JAK1(JH2domain-pseudokinase), sequence (P23458 578-855 limits assumed): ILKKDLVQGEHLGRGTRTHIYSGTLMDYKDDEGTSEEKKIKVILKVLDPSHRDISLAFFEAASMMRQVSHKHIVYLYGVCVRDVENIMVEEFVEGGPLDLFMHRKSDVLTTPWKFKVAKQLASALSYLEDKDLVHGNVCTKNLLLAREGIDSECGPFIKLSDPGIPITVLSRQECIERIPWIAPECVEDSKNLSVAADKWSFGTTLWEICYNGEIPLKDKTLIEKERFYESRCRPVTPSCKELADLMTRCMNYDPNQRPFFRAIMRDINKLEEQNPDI

CAMKK2, sequence (Q96RR4 whole entry): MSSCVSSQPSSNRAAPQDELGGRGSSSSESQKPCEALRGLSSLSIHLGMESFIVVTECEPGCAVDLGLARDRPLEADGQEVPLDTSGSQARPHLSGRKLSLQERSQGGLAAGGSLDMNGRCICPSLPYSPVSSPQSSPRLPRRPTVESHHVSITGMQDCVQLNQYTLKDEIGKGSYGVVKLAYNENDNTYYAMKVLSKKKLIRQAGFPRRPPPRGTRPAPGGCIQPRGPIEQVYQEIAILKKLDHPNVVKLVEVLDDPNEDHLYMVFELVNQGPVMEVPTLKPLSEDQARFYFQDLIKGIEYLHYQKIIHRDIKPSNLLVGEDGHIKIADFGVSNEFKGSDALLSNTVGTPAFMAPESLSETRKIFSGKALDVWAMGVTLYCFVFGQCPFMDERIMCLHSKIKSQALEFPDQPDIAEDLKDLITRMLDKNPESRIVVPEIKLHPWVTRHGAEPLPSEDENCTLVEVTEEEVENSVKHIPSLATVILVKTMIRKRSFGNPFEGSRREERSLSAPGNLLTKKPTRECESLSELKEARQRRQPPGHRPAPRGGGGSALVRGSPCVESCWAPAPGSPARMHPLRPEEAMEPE
CAMK2A, sequence (Q9UQM7 whole entry): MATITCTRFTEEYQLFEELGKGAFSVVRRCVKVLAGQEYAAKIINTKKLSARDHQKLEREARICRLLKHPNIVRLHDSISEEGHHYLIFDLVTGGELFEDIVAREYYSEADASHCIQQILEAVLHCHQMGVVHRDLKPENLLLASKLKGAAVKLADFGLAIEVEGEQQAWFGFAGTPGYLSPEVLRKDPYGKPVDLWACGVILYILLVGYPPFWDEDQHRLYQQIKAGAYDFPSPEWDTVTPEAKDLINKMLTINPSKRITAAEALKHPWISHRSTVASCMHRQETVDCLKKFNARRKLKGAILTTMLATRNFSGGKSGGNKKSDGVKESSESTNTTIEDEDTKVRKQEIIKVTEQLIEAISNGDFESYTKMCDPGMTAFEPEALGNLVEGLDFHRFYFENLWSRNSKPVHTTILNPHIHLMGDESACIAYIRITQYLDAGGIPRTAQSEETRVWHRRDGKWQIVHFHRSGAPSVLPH
CAMKK1, sequence (Q8N5S9 whole entry): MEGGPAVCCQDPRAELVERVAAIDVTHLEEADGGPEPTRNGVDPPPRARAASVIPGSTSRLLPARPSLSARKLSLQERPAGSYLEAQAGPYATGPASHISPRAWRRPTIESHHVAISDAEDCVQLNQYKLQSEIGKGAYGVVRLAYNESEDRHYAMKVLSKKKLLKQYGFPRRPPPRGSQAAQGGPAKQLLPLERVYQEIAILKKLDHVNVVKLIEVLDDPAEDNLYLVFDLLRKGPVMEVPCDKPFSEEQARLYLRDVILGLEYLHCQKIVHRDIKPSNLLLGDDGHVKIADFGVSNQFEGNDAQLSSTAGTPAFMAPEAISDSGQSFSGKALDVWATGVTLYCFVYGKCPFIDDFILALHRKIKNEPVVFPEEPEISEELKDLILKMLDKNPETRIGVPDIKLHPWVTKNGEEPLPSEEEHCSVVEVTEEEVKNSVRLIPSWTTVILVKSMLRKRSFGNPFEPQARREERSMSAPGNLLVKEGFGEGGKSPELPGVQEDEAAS
CDKL3, sequence (Q8IVW4 whole entry): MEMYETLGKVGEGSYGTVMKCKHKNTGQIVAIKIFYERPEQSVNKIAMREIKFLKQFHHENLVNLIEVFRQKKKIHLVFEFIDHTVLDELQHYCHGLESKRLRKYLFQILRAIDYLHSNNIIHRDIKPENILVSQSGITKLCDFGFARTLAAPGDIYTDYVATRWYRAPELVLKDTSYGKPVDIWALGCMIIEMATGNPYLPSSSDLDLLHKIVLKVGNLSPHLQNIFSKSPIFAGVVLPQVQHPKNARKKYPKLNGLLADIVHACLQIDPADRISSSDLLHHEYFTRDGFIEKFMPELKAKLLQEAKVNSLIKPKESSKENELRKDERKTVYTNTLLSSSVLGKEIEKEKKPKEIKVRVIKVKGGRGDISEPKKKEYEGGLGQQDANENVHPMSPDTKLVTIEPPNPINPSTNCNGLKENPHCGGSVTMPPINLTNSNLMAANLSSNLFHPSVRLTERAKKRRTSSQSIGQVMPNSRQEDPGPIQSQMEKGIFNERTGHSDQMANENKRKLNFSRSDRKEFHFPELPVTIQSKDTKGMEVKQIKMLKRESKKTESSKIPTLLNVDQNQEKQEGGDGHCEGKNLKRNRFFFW
CDC2L1, sequence (P21127 whole entry): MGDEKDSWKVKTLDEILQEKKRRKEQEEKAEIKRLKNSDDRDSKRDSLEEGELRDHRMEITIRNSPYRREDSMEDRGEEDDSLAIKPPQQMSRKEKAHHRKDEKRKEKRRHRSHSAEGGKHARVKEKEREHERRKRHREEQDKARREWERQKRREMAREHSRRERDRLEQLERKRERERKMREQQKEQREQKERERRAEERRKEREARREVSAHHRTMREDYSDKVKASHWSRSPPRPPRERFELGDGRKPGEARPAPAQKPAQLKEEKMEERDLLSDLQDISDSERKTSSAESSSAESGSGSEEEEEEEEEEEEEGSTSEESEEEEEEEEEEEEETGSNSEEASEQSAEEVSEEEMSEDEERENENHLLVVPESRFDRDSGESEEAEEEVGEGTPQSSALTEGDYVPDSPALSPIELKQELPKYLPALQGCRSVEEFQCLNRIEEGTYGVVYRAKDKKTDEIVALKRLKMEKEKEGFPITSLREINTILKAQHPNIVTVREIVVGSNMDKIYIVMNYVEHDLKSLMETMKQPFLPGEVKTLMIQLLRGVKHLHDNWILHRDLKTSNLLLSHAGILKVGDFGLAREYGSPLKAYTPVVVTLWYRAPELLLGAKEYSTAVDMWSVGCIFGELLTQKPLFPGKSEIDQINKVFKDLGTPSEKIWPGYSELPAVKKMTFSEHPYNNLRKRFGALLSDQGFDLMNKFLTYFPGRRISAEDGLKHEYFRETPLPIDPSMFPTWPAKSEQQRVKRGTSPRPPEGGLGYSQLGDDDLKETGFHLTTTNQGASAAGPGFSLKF
BTK, sequence (Q06187 whole entry): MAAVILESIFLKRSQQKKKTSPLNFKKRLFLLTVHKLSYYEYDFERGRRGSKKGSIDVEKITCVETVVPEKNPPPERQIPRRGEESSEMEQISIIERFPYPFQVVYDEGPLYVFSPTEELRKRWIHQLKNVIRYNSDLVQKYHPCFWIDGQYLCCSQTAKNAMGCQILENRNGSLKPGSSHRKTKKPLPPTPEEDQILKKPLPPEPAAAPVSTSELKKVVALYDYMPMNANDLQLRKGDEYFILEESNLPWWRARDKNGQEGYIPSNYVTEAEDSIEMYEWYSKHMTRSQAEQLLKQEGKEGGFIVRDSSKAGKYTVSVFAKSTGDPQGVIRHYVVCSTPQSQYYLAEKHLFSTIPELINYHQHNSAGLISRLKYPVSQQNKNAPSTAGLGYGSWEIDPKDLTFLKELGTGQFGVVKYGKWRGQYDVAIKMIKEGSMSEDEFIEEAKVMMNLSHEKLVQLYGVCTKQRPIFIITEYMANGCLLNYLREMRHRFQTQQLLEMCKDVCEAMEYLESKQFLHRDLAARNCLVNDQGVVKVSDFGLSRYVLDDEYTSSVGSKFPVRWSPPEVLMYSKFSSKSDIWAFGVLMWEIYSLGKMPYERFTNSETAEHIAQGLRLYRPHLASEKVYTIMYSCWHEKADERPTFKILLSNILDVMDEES
BUB1, sequence (O43683 whole entry): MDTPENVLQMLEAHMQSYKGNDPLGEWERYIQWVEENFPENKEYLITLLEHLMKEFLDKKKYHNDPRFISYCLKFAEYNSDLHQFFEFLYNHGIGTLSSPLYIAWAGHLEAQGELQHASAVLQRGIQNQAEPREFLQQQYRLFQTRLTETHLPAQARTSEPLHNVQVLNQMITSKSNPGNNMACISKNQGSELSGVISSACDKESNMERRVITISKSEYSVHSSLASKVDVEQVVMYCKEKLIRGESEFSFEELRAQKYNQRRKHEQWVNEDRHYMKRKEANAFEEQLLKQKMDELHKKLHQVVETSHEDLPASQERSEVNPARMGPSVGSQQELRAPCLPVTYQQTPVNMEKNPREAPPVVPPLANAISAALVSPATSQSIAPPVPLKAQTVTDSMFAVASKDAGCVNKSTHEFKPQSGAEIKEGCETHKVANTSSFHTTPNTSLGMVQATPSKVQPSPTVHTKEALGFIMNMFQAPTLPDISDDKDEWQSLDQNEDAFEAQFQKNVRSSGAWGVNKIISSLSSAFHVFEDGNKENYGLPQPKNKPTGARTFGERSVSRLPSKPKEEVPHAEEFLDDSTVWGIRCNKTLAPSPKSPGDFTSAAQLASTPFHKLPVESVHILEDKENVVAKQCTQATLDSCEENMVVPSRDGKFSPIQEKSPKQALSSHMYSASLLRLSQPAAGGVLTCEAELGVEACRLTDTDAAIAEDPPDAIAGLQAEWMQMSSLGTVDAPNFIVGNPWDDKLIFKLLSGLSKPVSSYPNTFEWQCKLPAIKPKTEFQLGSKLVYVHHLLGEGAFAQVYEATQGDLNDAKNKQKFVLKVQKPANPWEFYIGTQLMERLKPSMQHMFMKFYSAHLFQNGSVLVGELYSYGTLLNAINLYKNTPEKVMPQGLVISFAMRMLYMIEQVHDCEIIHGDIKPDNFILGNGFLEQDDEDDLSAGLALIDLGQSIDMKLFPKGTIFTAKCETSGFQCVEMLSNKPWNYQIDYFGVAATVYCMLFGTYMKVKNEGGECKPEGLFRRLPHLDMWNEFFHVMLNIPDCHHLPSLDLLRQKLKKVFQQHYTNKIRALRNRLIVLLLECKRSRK

Regarding `COc1cccc(OC)c1C(=O)Nc1cccc(-c2nn3ccccc3c2-c2ccnc(Nc3cccc(F)c3)n2)c1` [UNC10225310A], the inhibition at 1 µM on CDKL2 was determined as 6%; on IRAK4 it was 0%; at BUB1 it was 11%; at CAMKK1, 4%; at BTK it was 0%; on CAMKK2 it was 0%. Further, the inhibition at 1 µM on LRRK2 came out at 0%; at FGFR1 it was 11%; at CDKL3 it was 3%; at IKK-alpha it was 0%; on CAMK2A it was 27%; at CDC2L1, 0%. Further, in experiment [1], the inhibition at 1 µM stood at 4%.

As to `O=c1cc(N2CCOCC2)nc2n(Cc3cccc(Cl)c3Cl)c(C3CC3)nn12` [UNC10225469A], the inhibition at 1 µM at CDKL2 worked out at 0%; at IRAK4, 0%; at BUB1, 0%; at CAMKK1, 3%; at BTK, 0%; at CAMKK2, 8%. The inhibition at 1 µM turned out to be 0% at LRRK2; 0% on FGFR1; 0% at CDKL3; 0% on IKK-alpha; 25% on CAMK2A; 0% on CDC2L1. The inhibition at 1 µM in experiment [1] was 3%.

For the compound `Cn1cc(-c2cnc(N)c3c(-c4ccc5c(c4)CCN5C(=O)Cc4ccccc4)csc23)cn1` [UNC10225012A], the inhibition at 1 µM on CDKL2 came out at 0%; on IRAK4, 0%; on BUB1 it was 0%; at CAMKK1, 11%; at BTK, 0%; on CAMKK2, 19%. In addition, the inhibition at 1 µM turned out to be 3% at LRRK2; 28% at FGFR1; 4% at CDKL3; 0% at IKK-alpha; 29% at CAMK2A; 4% on CDC2L1. Also, in experiment [1], the inhibition at 1 µM worked out at 0%.

For the compound `CS(=O)(=O)Cc1ccc(Nc2nccc(-c3c(-c4cccc(NC(=O)C5CCCCC5)c4)nn4ncccc34)n2)cc1` [UNC10225159A], the inhibition at 1 µM on CDKL2 stood at 5%; at IRAK4, 25%; at BUB1, 98.7%; at CAMKK1, 0%; on BTK, 0%; on CAMKK2, 0%. In addition, the inhibition at 1 µM was determined as 20% on LRRK2; 0% on FGFR1; 0% on CDKL3; 0% on IKK-alpha; 15% on CAMK2A; 0% on CDC2L1. Besides, the inhibition at 1 µM in experiment [1] is 0%.

As for `Cc1ccc(NC(=O)Nc2cccc(C(F)(F)F)c2)cc1` [UNC10225187A], the inhibition at 1 µM on CDKL2 came to 0%; at IRAK4, 0%; at BUB1 it was 0%; on CAMKK1 it was 9%; at BTK it was 0%; at CAMKK2 it was 19%. Further, the inhibition at 1 µM was 0% at LRRK2; 1% on FGFR1; 4% at CDKL3; 0% on IKK-alpha; 32% at CAMK2A; 3% on CDC2L1. Also, in experiment [1], the inhibition at 1 µM turned out to be 12%.

The values are drawn from paper PMC5540273, “Progress towards a public chemogenomic set for protein kinases and a call for contributions” (PLoS ONE, 2017).
